{"source": "patent US8372967B2", "about": "“Compounds and methods for modulating expression of GCCR” (Isis Pharmaceuticals, Inc., priority 2006, dated 2013)", "type_in_all_cases": "in vivo, mouse", "key": {"SGLT2 mRNA": {"system": "SGLT2 mRNA", "assay": "SGLT2 mRNA in kidney of Balb/c mice, twenty 1-10-1 MOE gapmers, PPS 534 and PPS 553 (Table 74)", "conditions": "i.p. 350 nmol/kg twice per week for two weeks", "protocol": "Twenty 1-10-1 MOE gapmers that are complementary to human/monkey/mouse/rat SGLT2 were designed, synthesized and tested in vivo for suppression of SGLT2 mRNA levels in kidney. Data are averages from two experiments in which male 6-week old Balb/c mice were administered intraperitoneal injections of 350 nmol/kg of oligonucleotide, twice per week, over a period of two weeks (a total of four injections). Mice were sacrificed 48 hours following the last administration and evaluated for SGLT2 mRNA levels in kidney. SGLT2 mRNA levels were determined by quantitative real-time PCR analysis according to standard procedures, using two different PCR primer probe sets, primer probe set (PPS) 534 and PPS 553. SGLT2 mRNA levels were normalized to cyclophilin mRNA levels, which were also measured by quantitative real-time PCR."}, "GCGR mRNA": {"system": "GCGR mRNA", "assay": "GCGR mRNA levels in liver, C57/BL6 mice, single i.p. dose (Tables 35-41)", "conditions": "single i.p. dose 6.25, 12.5, 25 or 50 mg", "protocol": "Prior to quantitative PCR analysis, primer-probe sets specific to the target gene being measured were evaluated for their ability to be “multiplexed” with a GAPDH amplification reaction. After isolation the RNA is subjected to sequential reverse transcriptase (RT) reaction and real-time PCR, both of which are performed in the same well. RT and PCR reagents were obtained from Invitrogen Life Technologies (Carlsbad, Calif.). […] The RT reaction was carried out by incubation for 30 minutes at 48° C. Following a 10 minute incubation at 95° C. to activate the PLATIN 9M® Taq, 40 cycles of a two-step PCR protocol were carried out: 95° C. for 15 seconds (denaturation) followed by 60° C. for 1.5 minutes (annealing/extension).\n170 μL of RiboGreen® working reagent (RiboGreen® reagent diluted 1:350 in 10 mM Tris-HCl, 1 mM EDTA, pH 7.5) was pipetted into a 96-well plate containing 30 μL purified cellular RNA. The plate was read in a CytoFluor® 4000 (PE Applied Biosystems) with excitation at 485 nm and emission at 530 nm.\n(§1) Eight-week old male C57/BL6 mice (Jackson Laboratory, Bar Harbor, Me.) were administered a single dose of GCGR oligonucleotide by intraperitoneal injection at a concentration of […]. Each dose group consisted of four animals. Shown in Table 31 are the sequences, motifs and conjugates of the GCGR antisense compounds used in this study. Bolded residues indicate 2′-O-methoxyethyl (2′-MOE) moieties. All compounds comprise phosphorothioate internucleoside linkages throughout and each cytosine is replaced with 5-methylcytosine. ISIS 386626, ISIS 386627 and ISIS 386628 further comprise a C16 conjugate group attached to the 2′-O position of the sugar via a diamide linkage (2′-OCH2C(═O)N(H)(CH2)4N(H)C(═O)—(CH2)15CH3). GCGR antisense compounds target published GCGR sequences, including Genbank® Accession No. BC031885.1 (SEQ ID NO: 7).\n(§2) Mice were sacrificed 48 hours following injection to determine serum transaminase levels (Table 32); liver, white adipose tissue (WAT), spleen and kidney weight (Table 33); cholesterol, triglyceride and glucose levels (Table 34); GCGR mRNA levels (Tables 35-41); and full-length and total oligonucleotide concentration in liver and kidney (Table 42). Endpoints were assessed using methods described herein and well known to those of ordinary skill in the art. Data is included from a pre-treatment bleed (Pre-Bleed) and post-treatment bleed (Post-Bleed).\nTo determine whether the phenotypic changes shown above correlated with a decrease in GCGR mRNA, treated animals were evaluated for levels of target mRNA in liver by real time PCR according to methods described herein. Tables 35 to 41 show results from direct comparisons of the antisense compounds targeting GCGR nucleic acid for their effect on target expression. Results are expressed as percent of saline control."}, "[1]": {"assay": "Triglyceride, cholesterol and glucose levels, pre-bleed and post-bleed, GCGR study (Table 34)", "conditions": "C57/BL6 mice, 48 hours after single i.p. dose", "protocol": "as §1, §2"}, "[2]": {"conditions": "primer probe set 534, normalized to cyclophilin"}, "[3]": {"conditions": "primer probe set 553, normalized to cyclophilin"}}, "note": "Strand notation (5' to 3'): a small letter for the sugar, then the base; units joined by * are phosphorothioate-linked, units joined directly phosphodiester-linked; [ ] holds rarer units or linkages, { } end groups; capitals alone tell only the bases. e = 2'-O-(2-methoxyethyl) (MOE); [5mC] = 5-methylcytosine; d = 2'-deoxy (DNA)"}
{"substance": "379689 (antisense eA*dG*dA*dG*d[5mC]*dG*d[5mC]*dA*dT*dT*d[5mC]*e[5mC]) [compound 379689]", "values": [{"measurement": "% change in SGLT2 mRNA vs saline", "setting": "SGLT2 mRNA; [2]", "value": "−17.5", "unit": "% Saline"}, {"measurement": "% change in SGLT2 mRNA vs saline", "setting": "SGLT2 mRNA; [3]", "value": "−30.4", "unit": "% Saline"}]}
{"substance": "379690 (antisense eA*d[5mC]*dA*dG*dG*dT*dA*dG*dA*dG*dG*e[5mC]) [compound 379690]", "values": [{"measurement": "% change in SGLT2 mRNA vs saline", "setting": "SGLT2 mRNA; [2]", "value": "−18.9", "unit": "% Saline"}, {"measurement": "% change in SGLT2 mRNA vs saline", "setting": "SGLT2 mRNA; [3]", "value": "−22.5", "unit": "% Saline"}]}
{"substance": "379691 (antisense eA*dG*dA*dT*d[5mC]*dT*dT*dG*dG*dT*dG*eA) [compound 379691]", "values": [{"measurement": "% change in SGLT2 mRNA vs saline", "setting": "SGLT2 mRNA; [2]", "value": "−35.0", "unit": "% Saline"}, {"measurement": "% change in SGLT2 mRNA vs saline", "setting": "SGLT2 mRNA; [3]", "value": "−48.6", "unit": "% Saline"}]}
{"substance": "379692 (antisense eT*dG*dT*dT*d[5mC]*d[5mC]*dA*dG*d[5mC]*d[5mC]*d[5mC]*eA) [compound 379692]", "values": [{"measurement": "% change in SGLT2 mRNA vs saline", "setting": "SGLT2 mRNA; [2]", "value": "−88.1", "unit": "% Saline"}, {"measurement": "% change in SGLT2 mRNA vs saline", "setting": "SGLT2 mRNA; [3]", "value": "−88.5", "unit": "% Saline"}]}
{"substance": "379693 (antisense e[5mC]*dA*dT*dG*dG*dT*dG*dA*dT*dG*d[5mC]*e[5mC]) [compound 379693]", "values": [{"measurement": "% change in SGLT2 mRNA vs saline", "setting": "SGLT2 mRNA; [2]", "value": "−51.6", "unit": "% Saline"}, {"measurement": "% change in SGLT2 mRNA vs saline", "setting": "SGLT2 mRNA; [3]", "value": "−59.9", "unit": "% Saline"}]}
{"substance": "379694 (antisense eG*dA*d[5mC]*dG*dA*dA*dG*dG*dT*d[5mC]*dT*eG) [compound 379694]", "values": [{"measurement": "% change in SGLT2 mRNA vs saline", "setting": "SGLT2 mRNA; [2]", "value": "−42.1", "unit": "% Saline"}, {"measurement": "% change in SGLT2 mRNA vs saline", "setting": "SGLT2 mRNA; [3]", "value": "−54.4", "unit": "% Saline"}]}
{"substance": "379695 (antisense eG*dG*dA*d[5mC]*dA*d[5mC]*d[5mC]*dG*dT*d[5mC]*dA*eG) [compound 379695]", "values": [{"measurement": "% change in SGLT2 mRNA vs saline", "setting": "SGLT2 mRNA; [2]", "value": "−52.5", "unit": "% Saline"}, {"measurement": "% change in SGLT2 mRNA vs saline", "setting": "SGLT2 mRNA; [3]", "value": "−64.1", "unit": "% Saline"}]}
{"substance": "379696 (e[5mC]*dA*dG*d[5mC]*dT*dT*d[5mC]*dA*dG*dG*dT*eA; antisense) [compound 379696]", "values": [{"measurement": "% change in SGLT2 mRNA vs saline", "setting": "SGLT2 mRNA; [2]", "value": "−24.6", "unit": "% Saline"}, {"measurement": "% change in SGLT2 mRNA vs saline", "setting": "SGLT2 mRNA; [3]", "value": "−36.2", "unit": "% Saline"}]}
{"substance": "379697 (e[5mC]*dT*dG*dG*d[5mC]*dA*dT*dG*dA*d[5mC]*d[5mC]*eA; antisense) [compound 379697]", "values": [{"measurement": "% change in SGLT2 mRNA vs saline", "setting": "SGLT2 mRNA; [2]", "value": "−32.0", "unit": "% Saline"}, {"measurement": "% change in SGLT2 mRNA vs saline", "setting": "SGLT2 mRNA; [3]", "value": "−46.3", "unit": "% Saline"}]}
{"substance": "379698 (eG*d[5mC]*dA*dG*d[5mC]*d[5mC]*d[5mC]*dA*d[5mC]*d[5mC]*dT*e[5mC]) [compound 379698]", "values": [{"measurement": "% change in SGLT2 mRNA vs saline", "setting": "SGLT2 mRNA; [2]", "value": "−11.8", "unit": "% Saline"}, {"measurement": "% change in SGLT2 mRNA vs saline", "setting": "SGLT2 mRNA; [3]", "value": "−27.0", "unit": "% Saline"}]}
{"substance": "379699 (eG*dG*d[5mC]*dA*dT*dG*dA*dG*d[5mC]*dT*dT*e[5mC]) [compound 379699]", "values": [{"measurement": "% change in SGLT2 mRNA vs saline", "setting": "SGLT2 mRNA; [2]", "value": "−83.5", "unit": "% Saline"}, {"measurement": "% change in SGLT2 mRNA vs saline", "setting": "SGLT2 mRNA; [3]", "value": "−85.8", "unit": "% Saline"}]}
{"substance": "379700 (e[5mC]*d[5mC]*dA*dG*d[5mC]*dA*dT*dG*dA*dG*dT*e[5mC]; antisense) [compound 379700]", "values": [{"measurement": "% change in SGLT2 mRNA vs saline", "setting": "SGLT2 mRNA; [2]", "value": "−2.8", "unit": "% Saline"}, {"measurement": "% change in SGLT2 mRNA vs saline", "setting": "SGLT2 mRNA; [3]", "value": "−16.4", "unit": "% Saline"}]}
{"substance": "379701 (e[5mC]*d[5mC]*dA*dT*dG*dG*dT*dG*dA*dA*dG*eA) [compound 379701]", "values": [{"measurement": "% change in SGLT2 mRNA vs saline", "setting": "SGLT2 mRNA; [2]", "value": "−0.3", "unit": "% Saline"}, {"measurement": "% change in SGLT2 mRNA vs saline", "setting": "SGLT2 mRNA; [3]", "value": "−11.9", "unit": "% Saline"}]}
{"substance": "379702 (eG*d[5mC]*dA*d[5mC]*dA*d[5mC]*dA*dG*d[5mC]*dT*dG*e[5mC]) [compound 379702]", "values": [{"measurement": "% change in SGLT2 mRNA vs saline", "setting": "SGLT2 mRNA; [2]", "value": "−87.8", "unit": "% Saline"}, {"measurement": "% change in SGLT2 mRNA vs saline", "setting": "SGLT2 mRNA; [3]", "value": "−89.5", "unit": "% Saline"}]}
{"substance": "379703 (eG*d[5mC]*d[5mC]*dG*dG*dA*dG*dA*d[5mC]*dT*dG*eA; antisense) [compound 379703]", "values": [{"measurement": "% change in SGLT2 mRNA vs saline", "setting": "SGLT2 mRNA; [2]", "value": "−44.2", "unit": "% Saline"}, {"measurement": "% change in SGLT2 mRNA vs saline", "setting": "SGLT2 mRNA; [3]", "value": "−45.9", "unit": "% Saline"}]}
{"substance": "ISIS 386626: GCGR short antisense compound with C16 conjugate group at 2′-O via diamide linkage (GCTTCTCCATCATA; chemistry not fully specified)", "values": [{"measurement": "GCGR mRNA expression", "setting": "GCGR mRNA", "value": "greatest decrease in target mRNA"}, {"measurement": "Glucose levels (post-bleed)", "setting": "[1]", "value": "decreased in a dose-dependent manner"}]}
